Among the test systems are NCI-H522 lung; RPMI-8226 leukemia; SW-620 colon; SK-MEL-2 melanoma; NCI-H226 lung; LOX IMVI melanoma; PC-3 prostate; HL-60(TB) leukemia; UACC-62 melanoma; RXF 393 renal; SR leukemia; SF-295 CNS; UACC-257 melanoma; A549 NSCLC; MOLT-4 leukemia; OVCAR-4 ovarian; MDA-MB-231 breast; HS 578T breast; SK-OV-3 ovarian; T-47D breast.
Holding throughout (test): growth of human tumour cells (NCI), 48 h

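Compound exposure: 48 hours, 5 concentrations, 96-well plates. TGI marks complete inhibition of growth.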

For `Cn1c2ccccc2c2nc3ccccc3c(Cl)c21`, the TGI in the test on NCI-H522 lung, in the test on RPMI-8226 leukemia, in the test with SW-620 colon, with SK-MEL-2 melanoma, in the test on NCI-H226 lung and in the test on LOX IMVI melanoma was greater than 100 µM throughout. For the same molecule, the TGI with PC-3 prostate, in the test with HL-60(TB) leukemia, in the test on UACC-62 melanoma, with RXF 393 renal, in the test on SR leukemia and in the test on SF-295 CNS was greater than 100 µM in each case. For the same molecule, the TGI in the test on UACC-257 melanoma, with A549 NSCLC, in the test with MOLT-4 leukemia, with OVCAR-4 ovarian, in the test with MDA-MB-231 breast and with HS 578T breast was greater than 100 µM throughout. The molecule also came in with a TGI in the test with SK-OV-3 ovarian greater than 100 µM.

For `C[C@@H]1OC(=O)C[C@H]2CC(=O)N(CCC3CN(S(=O)(=O)C(F)(F)F)c4ccccc43)C[C@@H]21` (some centres undefined), the TGI with NCI-H522 lung, with RPMI-8226 leukemia, in the test on SW-620 colon, in the test with SK-MEL-2 melanoma, with PC-3 prostate and in the test with UACC-62 melanoma was greater than 100 µM each time. The TGI in the test with RXF 393 renal, with SR leukemia, in the test with SF-295 CNS, in the test on UACC-257 melanoma, with A549 NSCLC and in the test on MOLT-4 leukemia was greater than 100 µM in each case. Also, the TGI with OVCAR-4 ovarian, in the test with MDA-MB-231 breast, in the test on HS 578T breast and in the test on SK-OV-3 ovarian was greater than 100 µM throughout.

Take `O=C(Cn1c2ccc(Br)cc2c2nc3ccccc3nc21)N/N=C/c1ccccc1`: the TGI with SW-620 colon, in the test with SK-MEL-2 melanoma, in the test on NCI-H226 lung, with PC-3 prostate, with UACC-62 melanoma and in the test with RXF 393 renal was greater than 100 µM throughout. Further, the TGI is greater than 100 µM in the test with SR leukemia; 84.8 µM in the test with SF-295 CNS; greater than 100 µM with UACC-257 melanoma; greater than 100 µM in the test with A549 NSCLC; greater than 100 µM with MDA-MB-231 breast; greater than 100 µM in the test with SK-OV-3 ovarian. In the test with T-47D breast, this molecule gave a TGI greater than 100 µM.

On to `Nc1cc(N2CCOCC2)nc(=O)n1-c1ccc(Cl)cc1`, for which the TGI in the test on RPMI-8226 leukemia, with SW-620 colon, with SK-MEL-2 melanoma, with NCI-H226 lung, in the test with LOX IMVI melanoma and with PC-3 prostate was greater than 100 µM in each case. Also, the TGI in the test with HL-60(TB) leukemia, in the test on UACC-62 melanoma, in the test on SR leukemia, in the test on SF-295 CNS, with UACC-257 melanoma and with A549 NSCLC was greater than 100 µM in each case. Further, the TGI in the test with MOLT-4 leukemia, with SK-OV-3 ovarian and with T-47D breast was greater than 100 µM each time.

For the molecule `CC(C)(CC#N)c1cc(CC(C)(C)c2cc(CC(C)(C)c3cc(C(C)(C)C4(C)OCCO4)no3)no2)no1`, the TGI with NCI-H522 lung, in the test on RPMI-8226 leukemia, in the test with SW-620 colon, with SK-MEL-2 melanoma, with NCI-H226 lung and in the test on PC-3 prostate was greater than 100 µM throughout. Moreover, the TGI is greater than 100 µM in the test with UACC-62 melanoma; 41.3 µM with RXF 393 renal; greater than 100 µM with SF-295 CNS; greater than 100 µM with UACC-257 melanoma; greater than 100 µM with A549 NSCLC; greater than 100 µM in the test on MOLT-4 leukemia. Also, the TGI in the test with OVCAR-4 ovarian is 91 µM; in the test with MDA-MB-231 breast, 99.7 µM; in the test with HS 578T breast, 88.7 µM; in the test on SK-OV-3 ovarian, greater than 100 µM; in the test with T-47D breast, greater than 100 µM.

Consider `CC(=O)c1sc(Nc2ccc(Cl)c(Cl)c2)nc1C`, for which the TGI in the test with RPMI-8226 leukemia, in the test on SW-620 colon, in the test with NCI-H226 lung, in the test with LOX IMVI melanoma, with UACC-62 melanoma and in the test with RXF 393 renal was greater than 100 µM in each case. The TGI was greater than 100 µM in the test with SR leukemia; greater than 100 µM in the test on SF-295 CNS; greater than 100 µM in the test on UACC-257 melanoma; greater than 100 µM in the test on A549 NSCLC; 83.8 µM in the test with MOLT-4 leukemia; greater than 100 µM in the test with OVCAR-4 ovarian. For the same molecule, the TGI in the test with MDA-MB-231 breast, in the test on SK-OV-3 ovarian and with T-47D breast was greater than 100 µM throughout.

As for `CCOC(=O)C1=COC(C)(c2ccccc2)CC1=O` (centres undefined), the TGI with NCI-H522 lung, in the test with RPMI-8226 leukemia, in the test with SW-620 colon, with SK-MEL-2 melanoma, in the test on PC-3 prostate and in the test on UACC-62 melanoma was greater than 100 µM each time. Besides, the TGI is greater than 100 µM with RXF 393 renal; greater than 100 µM with SF-295 CNS; greater than 100 µM in the test with UACC-257 melanoma; greater than 100 µM in the test with A549 NSCLC; 98 µM in the test with MOLT-4 leukemia; greater than 100 µM with OVCAR-4 ovarian. The TGI with MDA-MB-231 breast, with HS 578T breast, in the test with SK-OV-3 ovarian and in the test on T-47D breast was greater than 100 µM each time.

For the molecule `COC(=O)c1ccccc1C1CN=NC12Cc1cc(C)c(C)cc1C2=O` (centres undefined), the TGI in the test with NCI-H522 lung was 67.3 µM; in the test on SW-620 colon it was greater than 100 µM; in the test on SK-MEL-2 melanoma, greater than 100 µM; in the test with NCI-H226 lung it was greater than 100 µM; in the test with LOX IMVI melanoma it was 92.7 µM; in the test with PC-3 prostate, greater than 100 µM. Also, the TGI in the test with HL-60(TB) leukemia is 46.9 µM; in the test with UACC-62 melanoma, greater than 100 µM; in the test with RXF 393 renal it was greater than 100 µM; in the test on SF-295 CNS it was greater than 100 µM; in the test with UACC-257 melanoma, 44.9 µM; with A549 NSCLC, greater than 100 µM. Besides, the TGI with MOLT-4 leukemia is 89.8 µM; in the test on OVCAR-4 ovarian, greater than 100 µM; with MDA-MB-231 breast it was greater than 100 µM; in the test with HS 578T breast, greater than 100 µM; in the test with SK-OV-3 ovarian, greater than 100 µM; in the test with T-47D breast it was greater than 100 µM.

These data come from PubChem BioAssay (NCI).
